Reference: ChEMBL document CHEMBL5131569, “SAGE-718: A First-in-Class N-Methyl-d-Aspartate Receptor Positive Allosteric Modulator for the Potential Treatment of Cognitive Impairment” (J Med Chem, 2022)
Values after ≈ are worked out from the molar mass of the structure shown.

Columns and labels:
[1] = biological target: Glutamate NMDA receptor; GRIN1/GRIN2B (Homo sapiens, UniProt Q05586+Q13224); assay: Positive allosteric modulation of recombinant human GluN1/GluN2B receptor stably expressed in HEK293 cells assessed as increase in glycine/L-glutamate-induced channel current at -70 mV holding potential by whole cell patch clamp method; type: cell-based
Sequence of Glutamate NMDA receptor; GRIN1/GRIN2B (Q13224 whole entry, other chains not shown): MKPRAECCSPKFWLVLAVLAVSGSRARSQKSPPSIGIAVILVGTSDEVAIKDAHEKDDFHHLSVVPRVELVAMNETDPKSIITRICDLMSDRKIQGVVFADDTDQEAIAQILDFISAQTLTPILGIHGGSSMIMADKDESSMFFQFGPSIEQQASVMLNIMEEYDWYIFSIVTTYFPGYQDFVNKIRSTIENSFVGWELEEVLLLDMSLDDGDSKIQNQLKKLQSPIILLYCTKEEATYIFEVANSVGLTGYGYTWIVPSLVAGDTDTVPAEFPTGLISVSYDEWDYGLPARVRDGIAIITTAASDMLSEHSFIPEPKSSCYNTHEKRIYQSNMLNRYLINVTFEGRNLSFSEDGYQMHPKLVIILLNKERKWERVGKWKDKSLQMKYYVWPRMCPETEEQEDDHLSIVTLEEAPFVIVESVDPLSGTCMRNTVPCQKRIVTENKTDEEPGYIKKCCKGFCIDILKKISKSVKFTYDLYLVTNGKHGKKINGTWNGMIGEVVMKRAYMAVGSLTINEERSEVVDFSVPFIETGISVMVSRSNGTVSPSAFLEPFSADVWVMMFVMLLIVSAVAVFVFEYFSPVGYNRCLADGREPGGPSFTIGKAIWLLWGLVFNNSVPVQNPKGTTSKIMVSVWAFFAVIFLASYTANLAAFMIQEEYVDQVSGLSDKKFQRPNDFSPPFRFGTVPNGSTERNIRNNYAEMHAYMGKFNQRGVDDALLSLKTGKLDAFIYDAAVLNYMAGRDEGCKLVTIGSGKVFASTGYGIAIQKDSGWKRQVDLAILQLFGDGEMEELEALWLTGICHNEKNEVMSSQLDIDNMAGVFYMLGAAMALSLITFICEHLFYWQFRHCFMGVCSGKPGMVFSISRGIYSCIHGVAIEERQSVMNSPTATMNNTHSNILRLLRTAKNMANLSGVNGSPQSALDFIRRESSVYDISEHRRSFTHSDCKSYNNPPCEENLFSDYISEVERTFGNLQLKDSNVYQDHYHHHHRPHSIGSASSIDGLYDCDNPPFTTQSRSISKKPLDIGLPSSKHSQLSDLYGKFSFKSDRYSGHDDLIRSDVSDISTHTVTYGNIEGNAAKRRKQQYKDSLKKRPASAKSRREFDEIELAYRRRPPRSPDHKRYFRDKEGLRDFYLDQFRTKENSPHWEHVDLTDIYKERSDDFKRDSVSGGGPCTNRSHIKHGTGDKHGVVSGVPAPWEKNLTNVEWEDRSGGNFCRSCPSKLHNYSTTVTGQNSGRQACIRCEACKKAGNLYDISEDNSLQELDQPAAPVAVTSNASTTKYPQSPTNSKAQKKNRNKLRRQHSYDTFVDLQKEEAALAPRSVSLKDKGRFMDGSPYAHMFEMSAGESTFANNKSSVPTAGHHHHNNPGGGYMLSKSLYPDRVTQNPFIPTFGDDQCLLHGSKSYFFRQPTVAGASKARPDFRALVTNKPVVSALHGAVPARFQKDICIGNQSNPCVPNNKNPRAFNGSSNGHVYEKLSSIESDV

[2] = Aqueous solubility of compound in PBS incubated for 1 hr under shaking condition by HPLC-MS/MS analysis; type: physicochemical
[3] = Metabolic stability in rat hepatocytes assessed as clearance at 10 uM measured upto 120 mins by LC-MS/MS analysis; type: ADME, cell-based, Hepatocyte; conditions: 2 h
[4] = Metabolic stability in monkey hepatocytes assessed as clearance at 10 uM measured upto 120 mins by LC-MS/MS analysis; type: ADME, cell-based, Macaca mulatta, Hepatocyte; conditions: rhesus monkey, 2 h
[5] = Metabolic stability in human hepatocytes assessed as clearance at 10 uM measured upto 120 mins by LC-MS/MS analysis; type: ADME, cell-based, Hepatocyte; conditions: 2 h
[6] = Metabolic stability in dog liver microsomes assessed as intrinsic clearance at 10 uM preincubated for 5 mins followed by NADPH addition and measured upto 65 mins by LC-MS/MS analysis; type: ADME, Canis lupus familiaris, Microsome; conditions: time < 70 min, read-out: CLH
[7] = Clearance in Sprague-Dawley rat by LC-MS/MS analysis; type: ADME; conditions: in vivo
[8] = Oral bioavailability in Sprague-Dawley rat by LC-MS/MS analysis; type: ADME, organism-based; conditions: in vivo
Cytochrome P450 1A2 = biological target: T1, Cytochrome P450 1A2 (Homo sapiens, UniProt P05177); assay: Inhibition of CYP1A2 (unknown origin); type: ADME
T1 sequence (P05177 whole entry): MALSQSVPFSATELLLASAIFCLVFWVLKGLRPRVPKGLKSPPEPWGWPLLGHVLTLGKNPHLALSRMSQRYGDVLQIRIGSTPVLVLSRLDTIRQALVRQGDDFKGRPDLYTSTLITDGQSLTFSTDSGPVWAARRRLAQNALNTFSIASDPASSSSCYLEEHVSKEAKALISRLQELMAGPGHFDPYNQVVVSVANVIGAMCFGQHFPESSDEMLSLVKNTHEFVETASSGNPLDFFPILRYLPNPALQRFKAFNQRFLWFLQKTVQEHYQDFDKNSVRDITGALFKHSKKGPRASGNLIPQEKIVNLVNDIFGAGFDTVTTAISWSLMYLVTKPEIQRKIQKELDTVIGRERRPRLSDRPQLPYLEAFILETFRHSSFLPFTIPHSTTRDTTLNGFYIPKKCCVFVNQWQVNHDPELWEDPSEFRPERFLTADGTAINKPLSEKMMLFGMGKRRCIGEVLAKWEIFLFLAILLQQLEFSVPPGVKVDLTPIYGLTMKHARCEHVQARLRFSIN

Cytochrome P450 2C9 = Cytochrome P450 2C9 (Homo sapiens, UniProt P11712); assay: Inhibition of CYP2C9 (unknown origin); type: ADME
Sequence of Cytochrome P450 2C9 (P11712 whole entry): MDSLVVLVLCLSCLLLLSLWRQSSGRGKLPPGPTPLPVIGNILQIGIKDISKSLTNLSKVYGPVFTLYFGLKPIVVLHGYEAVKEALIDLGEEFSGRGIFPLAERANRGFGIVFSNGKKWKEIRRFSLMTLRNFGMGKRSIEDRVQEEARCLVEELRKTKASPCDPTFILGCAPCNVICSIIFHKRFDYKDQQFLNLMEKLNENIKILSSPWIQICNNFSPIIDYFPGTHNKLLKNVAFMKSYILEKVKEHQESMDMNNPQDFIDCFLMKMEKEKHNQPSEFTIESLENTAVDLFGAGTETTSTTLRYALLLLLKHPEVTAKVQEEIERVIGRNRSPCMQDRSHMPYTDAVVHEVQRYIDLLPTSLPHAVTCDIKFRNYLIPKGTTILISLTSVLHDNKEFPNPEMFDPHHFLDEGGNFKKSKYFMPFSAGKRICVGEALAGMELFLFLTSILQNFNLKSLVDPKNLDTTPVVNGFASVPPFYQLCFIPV

Cytochrome P450 2D6 = Cytochrome P450 2D6 (Homo sapiens, UniProt P10635); assay: Inhibition of CYP2D6 (unknown origin); type: ADME
Sequence of Cytochrome P450 2D6 (P10635 whole entry): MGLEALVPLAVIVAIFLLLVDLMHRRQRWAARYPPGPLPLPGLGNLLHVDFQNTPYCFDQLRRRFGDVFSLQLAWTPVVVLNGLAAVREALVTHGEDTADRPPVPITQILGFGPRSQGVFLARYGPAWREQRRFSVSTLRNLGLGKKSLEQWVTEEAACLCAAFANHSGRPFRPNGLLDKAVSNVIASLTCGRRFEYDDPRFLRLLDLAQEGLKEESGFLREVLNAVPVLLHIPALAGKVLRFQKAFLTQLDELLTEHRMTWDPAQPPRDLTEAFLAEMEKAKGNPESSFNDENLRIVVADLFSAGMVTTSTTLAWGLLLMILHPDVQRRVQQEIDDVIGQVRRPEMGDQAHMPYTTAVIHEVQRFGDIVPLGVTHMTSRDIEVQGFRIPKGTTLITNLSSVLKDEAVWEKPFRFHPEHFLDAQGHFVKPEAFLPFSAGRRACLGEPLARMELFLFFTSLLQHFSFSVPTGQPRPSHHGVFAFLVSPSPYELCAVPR

[9] = Plasma protein binding in human after 15 mins by equilibrium dialysis method; type: ADME, cell-free; conditions: read-out: PPB (converted)
[10] = biological target: Voltage-dependent L-type calcium channel subunit alpha-1C (Homo sapiens, UniProt Q13936); assay: Inhibition of CaV1.2 (unknown origin) by patch clamp method
Sequence of Voltage-dependent L-type calcium channel subunit alpha-1C (Q13936 whole entry): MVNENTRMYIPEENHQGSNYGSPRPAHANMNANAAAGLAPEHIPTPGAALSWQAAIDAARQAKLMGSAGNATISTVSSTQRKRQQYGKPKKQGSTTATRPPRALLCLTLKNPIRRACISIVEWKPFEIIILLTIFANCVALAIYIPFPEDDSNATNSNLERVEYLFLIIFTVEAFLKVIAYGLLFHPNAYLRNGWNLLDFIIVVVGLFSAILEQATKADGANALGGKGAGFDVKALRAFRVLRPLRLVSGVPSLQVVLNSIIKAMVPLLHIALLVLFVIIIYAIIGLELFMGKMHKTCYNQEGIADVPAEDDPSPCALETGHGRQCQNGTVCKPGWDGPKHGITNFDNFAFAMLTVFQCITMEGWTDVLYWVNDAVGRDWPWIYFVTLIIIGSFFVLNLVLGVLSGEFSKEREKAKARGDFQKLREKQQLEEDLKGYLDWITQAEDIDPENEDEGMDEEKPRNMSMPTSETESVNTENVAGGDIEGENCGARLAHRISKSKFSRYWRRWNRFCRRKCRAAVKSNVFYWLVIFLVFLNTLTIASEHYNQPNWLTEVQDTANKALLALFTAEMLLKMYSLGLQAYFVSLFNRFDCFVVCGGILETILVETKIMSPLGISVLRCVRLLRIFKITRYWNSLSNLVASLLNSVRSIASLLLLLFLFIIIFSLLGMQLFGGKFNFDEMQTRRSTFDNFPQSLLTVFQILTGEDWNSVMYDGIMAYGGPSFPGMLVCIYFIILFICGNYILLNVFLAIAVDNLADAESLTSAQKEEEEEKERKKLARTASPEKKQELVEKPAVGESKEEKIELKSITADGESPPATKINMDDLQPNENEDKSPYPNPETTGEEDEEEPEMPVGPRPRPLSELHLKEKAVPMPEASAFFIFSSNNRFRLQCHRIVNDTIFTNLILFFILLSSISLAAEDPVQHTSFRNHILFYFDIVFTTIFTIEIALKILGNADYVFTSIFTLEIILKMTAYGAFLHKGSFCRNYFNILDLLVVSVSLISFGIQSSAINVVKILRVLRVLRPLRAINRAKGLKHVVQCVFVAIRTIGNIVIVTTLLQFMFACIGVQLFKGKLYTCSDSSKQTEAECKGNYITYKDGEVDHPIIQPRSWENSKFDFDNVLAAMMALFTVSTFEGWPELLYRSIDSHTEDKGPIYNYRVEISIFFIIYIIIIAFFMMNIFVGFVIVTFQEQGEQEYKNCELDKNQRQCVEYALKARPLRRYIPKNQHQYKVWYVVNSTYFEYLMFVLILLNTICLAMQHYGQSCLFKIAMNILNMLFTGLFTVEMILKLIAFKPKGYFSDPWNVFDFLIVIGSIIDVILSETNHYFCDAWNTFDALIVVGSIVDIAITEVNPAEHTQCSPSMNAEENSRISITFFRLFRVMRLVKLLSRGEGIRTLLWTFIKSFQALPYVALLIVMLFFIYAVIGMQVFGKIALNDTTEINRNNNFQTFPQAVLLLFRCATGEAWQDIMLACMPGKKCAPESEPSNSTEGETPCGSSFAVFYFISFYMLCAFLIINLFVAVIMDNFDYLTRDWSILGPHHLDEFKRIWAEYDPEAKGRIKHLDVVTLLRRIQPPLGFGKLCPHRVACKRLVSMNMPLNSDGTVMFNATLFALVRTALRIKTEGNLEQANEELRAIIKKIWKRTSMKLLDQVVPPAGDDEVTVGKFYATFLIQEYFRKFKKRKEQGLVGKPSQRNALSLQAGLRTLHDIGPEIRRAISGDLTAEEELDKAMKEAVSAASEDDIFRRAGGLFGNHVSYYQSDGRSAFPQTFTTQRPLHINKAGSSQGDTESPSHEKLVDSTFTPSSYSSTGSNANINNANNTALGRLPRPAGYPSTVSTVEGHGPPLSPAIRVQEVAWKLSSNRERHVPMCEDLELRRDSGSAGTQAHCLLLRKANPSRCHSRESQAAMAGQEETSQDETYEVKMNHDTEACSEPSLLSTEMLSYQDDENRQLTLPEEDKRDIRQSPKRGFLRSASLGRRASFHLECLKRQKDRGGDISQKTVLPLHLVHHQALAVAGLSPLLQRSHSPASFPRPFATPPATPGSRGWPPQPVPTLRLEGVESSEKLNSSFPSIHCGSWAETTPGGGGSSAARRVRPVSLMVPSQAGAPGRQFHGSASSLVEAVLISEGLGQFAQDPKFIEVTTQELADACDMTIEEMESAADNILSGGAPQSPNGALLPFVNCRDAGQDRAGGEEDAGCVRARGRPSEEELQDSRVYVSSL

[11] = biological target: T2, Potassium/sodium hyperpolarization-activated cyclic nucleotide-gated channel 2 (Homo sapiens, UniProt Q9UL51); assay: Inhibition of HCN2 (unknown origin) by patch clamp method
T2 sequence (Q9UL51 whole entry): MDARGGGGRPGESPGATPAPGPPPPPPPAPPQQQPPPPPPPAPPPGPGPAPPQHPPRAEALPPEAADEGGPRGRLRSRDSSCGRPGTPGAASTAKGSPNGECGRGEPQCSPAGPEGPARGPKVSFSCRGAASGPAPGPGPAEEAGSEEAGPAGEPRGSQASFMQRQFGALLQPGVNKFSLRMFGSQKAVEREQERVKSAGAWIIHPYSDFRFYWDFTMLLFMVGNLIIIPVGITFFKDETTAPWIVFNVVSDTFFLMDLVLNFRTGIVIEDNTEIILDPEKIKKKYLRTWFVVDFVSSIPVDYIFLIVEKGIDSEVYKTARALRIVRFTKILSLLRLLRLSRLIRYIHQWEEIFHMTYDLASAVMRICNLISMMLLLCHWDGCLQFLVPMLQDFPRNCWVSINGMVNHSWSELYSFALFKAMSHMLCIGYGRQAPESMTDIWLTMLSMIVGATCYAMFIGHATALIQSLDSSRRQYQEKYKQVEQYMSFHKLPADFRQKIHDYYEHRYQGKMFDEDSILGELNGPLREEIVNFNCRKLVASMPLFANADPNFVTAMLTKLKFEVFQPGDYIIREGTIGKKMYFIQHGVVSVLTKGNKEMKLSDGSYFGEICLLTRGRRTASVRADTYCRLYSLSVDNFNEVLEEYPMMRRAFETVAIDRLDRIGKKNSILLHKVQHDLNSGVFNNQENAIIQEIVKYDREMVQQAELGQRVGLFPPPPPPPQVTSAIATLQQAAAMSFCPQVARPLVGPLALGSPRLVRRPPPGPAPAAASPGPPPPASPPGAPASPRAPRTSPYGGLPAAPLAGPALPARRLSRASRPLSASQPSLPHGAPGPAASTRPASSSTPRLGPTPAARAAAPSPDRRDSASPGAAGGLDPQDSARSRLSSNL

Mus musculus [12] = assay: Reversal of DOI-induced hyperlocomotion in CD-1 mouse assessed as reduction in distance travel at 3 mg/kg, ip administered 90 mins prior to DOI induction and measured upto 30 mins post DOI treatment (reference value: 7.8 +/- 0.8 meter); type: functional; conditions: time <= 120 min, 2 h
Mus musculus [13] = assay: Reversal of DOI-induced hyperlocomotion in CD-1 mouse assessed as reduction in distance travel at 5 mg/kg, ip administered 90 mins prior to DOI induction and measured upto 30 mins post DOI treatment (reference value: 7.8 +/- 0.8 meter); type: functional; conditions: time <= 120 min, 2 h
Mus musculus [14] = assay: Reversal of DOI-induced hyperlocomotion in CD-1 mouse assessed as reduction in rearing at 3 mg/kg, ip administered 90 mins prior to DOI induction and measured upto 30 mins post DOI treatment (reference value: 59.8 +/- 8.6 Counts); type: functional; conditions: time <= 120 min, 2 h
Mus musculus [15] = assay: Reversal of DOI-induced hyperlocomotion in CD-1 mouse assessed as reduction in rearing at 5 mg/kg, ip administered 90 mins prior to DOI induction and measured upto 30 mins post DOI treatment (reference value: 59.8 +/- 8.6 Counts); type: functional; conditions: time <= 120 min, 2 h
[16] = Drug concentration in CD-1 mouse plasma at 3 mg/kg, ip administered for 90 mins; type: ADME, organism-based
[17] = Drug concentration in CD-1 mouse plasma at 7.5 mg/kg, ip administered for 90 mins; type: ADME, organism-based
[18] = Drug concentration in CD-1 mouse brain at 3 mg/kg, ip administered for 90 mins; type: ADME, organism-based; conditions: read-out: Ct
[19] = Drug concentration in CD-1 mouse brain at 5 mg/kg, ip administered for 90 mins; type: ADME, organism-based; conditions: read-out: Ct
[20] = Drug concentration in CD-1 mouse brain at 10 mg/kg, ip administered for 90 mins; type: ADME, organism-based; conditions: read-out: Ct
in vivo = conditions: CD-1, mouse, brain and plasma
Description: Ratio of AUC(0 to 72 hrs) in CD-1 mouse brain to plasma by LC-MS/MS analysis

C[C@H](CC[C@](C)(O)C(F)(F)F)[C@H]1CC[C@H]2[C@@H]3CC=C4C[C@@](C)(O)CC[C@]4(C)[C@H]3CC[C@]12C [DALZANEMDOR] gave an EC50 [1] of 0.079 µM, a solubility at 1 h [2] of 2.2 µM (≈ 1 µg/mL) and a CLH [3] of 18.3 mL/min/kg. The CLH [4] was 18.3 mL/min/kg, the CLH [5] was 6.7 mL/min/kg and the microsomal CLint at 10 µM [6] was 4.7 µL/min/mg. The clearance [7] was 10 mL/min/kg, the bioavailability [8] was 28% and the IC50 (Cytochrome P450 1A2) was over 100 µM. For the same compound, the IC50 (Cytochrome P450 2C9) was over 100 µM, the IC50 (Cytochrome P450 2D6) was over 100 µM and the fraction unbound at 0.25 h [9] was 0.015. The IC50 [10] was over 30 µM, the IC50 [11] was over 30 µM and the Activity (Mus musculus [12]) was 6.9 m. The Activity (Mus musculus [13]) was 4.1 m, the Activity (Mus musculus [14]) was 52.9 Counts and the Activity (Mus musculus [15]) was 27.1 Counts. The concentration at 1.5 h [16] was 577 ng/mL, the concentration at 1.5 h [17] was 1590 ng/mL and the concentration at 1.5 h [18] was 490 ng/g. For the same compound, the concentration at 1.5 h [19] was 894 ng/g, the concentration at 1.5 h [20] was 1610 ng/g and the Kp (in vivo) was 1.8.
